Inconclusive results and toxic doses are left out. How the source made its calls: active means survival T/C of 150% or more; inactive means T/C below 125% in these data.
Tested on: CD2F1 mice, L1210 leukemia ip, survival T/C
Assay: NCI In Vivo Anticancer Drug Screen. Data for tumor model L1210 Leukemia (intraperitoneal) in CD2F1 (CDF1) mice
Details: endpoint: mean survival time, higher = longer survival
How it was run: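 Transplantable tumor in mice; compound-treated vs vehicle-treated groups. Read-out = treated/control ratio of the measured endpoint.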

[1] = dose: 50.0 mg/kg/injection, schedule: Q01DX009 (ip), vehicle: saline with Tween-80
[2] = dose: 100.0 mg/kg/injection, schedule: Q04DX003 (ip), vehicle: saline with Tween-80
[3] = dose: 100.0 mg/kg/injection, schedule: Q01DX001 (ip), vehicle: saline with Tween-80
[4] = dose: 200.0 mg/kg/injection, schedule: Q01DX001 (ip), vehicle: saline with Tween-80
[5] = dose: 400.0 mg/kg/injection, schedule: Q01DX001 (ip), vehicle: saline with Tween-80
[6] = dose: 100.0 mg/kg/injection, schedule: Q01DX001 (ip), vehicle: saline
[7] = dose: 200.0 mg/kg/injection, schedule: Q01DX001 (ip), vehicle: saline
[8] = dose: 400.0 mg/kg/injection, schedule: Q01DX001 (ip), vehicle: saline
[9] = dose: 100.0 mg/kg/injection, schedule: Q01DX009 (ip), vehicle: saline with Tween-80
[10] = dose: 200.0 mg/kg/injection, schedule: Q01DX009 (ip), vehicle: saline with Tween-80
[11] = dose: 200.0 mg/kg/injection, schedule: Q04DX003 (ip), vehicle: saline with Tween-80
[12] = dose: 400.0 mg/kg/injection, schedule: Q01DX009 (ip), vehicle: saline with Tween-80
[13] = dose: 400.0 mg/kg/injection, schedule: Q04DX003 (ip), vehicle: saline with Tween-80
[14] = dose: 100.0 mg/kg/injection, schedule: Q04DX003 (ip), vehicle: saline
[15] = dose: 200.0 mg/kg/injection, schedule: Q04DX003 (ip), vehicle: saline
[16] = dose: 400.0 mg/kg/injection, schedule: Q04DX003 (ip), vehicle: saline
[17] = dose: 100.0 mg/kg/injection, schedule: Q01DX009 (ip), vehicle: other
[18] = dose: 200.0 mg/kg/injection, schedule: Q01DX009 (ip), vehicle: other
[19] = dose: 400.0 mg/kg/injection, schedule: Q01DX009 (ip), vehicle: other

Measured: T/C

COc1ccc2c(Nc3ccc(NS(C)(=O)=O)cc3)c3ccccc3nc2c1
inactive: dose: 25.0 mg/kg/injection, schedule: Q01DX009 (ip), vehicle: saline with Tween-80 100 % of control | [1] 86 % of control | [2] 120 % of control | dose: 150.0 mg/kg/injection, schedule: Q04DX003 (ip), vehicle: saline with Tween-80 94 % of control

c1cc[c]([Pb]([c]2ccccc2)([c]2ccccc2)[n]2cccc2)cc1
inactive: dose: 6.25 mg/kg/injection, schedule: Q01DX009 (ip), vehicle: acetone 96 % of control | dose: 12.5 mg/kg/injection, schedule: Q01DX009 (ip), vehicle: acetone 88 % of control | dose: 12.5 mg/kg/injection, schedule: Q04DX003 (ip), vehicle: acetone 88 % of control | dose: 25.0 mg/kg/injection, schedule: Q04DX003 (ip), vehicle: acetone 93 % of control

C[P+](c1ccc(F)cc1)(c1ccc(F)cc1)c1ccc(F)cc1
inactive: dose: 25.0 mg/kg/injection, schedule: Q04DX002 (ip), vehicle: saline with Tween-80 100 % of control | dose: 50.0 mg/kg/injection, schedule: Q04DX002 (ip), vehicle: saline with Tween-80 92 % of control

CS(=O)(=O)Cc1cnc(N)nc1-c1ccccc1
inactive: [3] 94 % of control | [4] 97 % of control | [5] 94 % of control

C[Si](C)(C)C1CCC2C3C=CC(C3)C21 (stereo unspecified)
inactive: dose: 100.0 mg/kg/injection, schedule: Q04DX003 (ip), vehicle: alcohol 107 % of control | dose: 200.0 mg/kg/injection, schedule: Q04DX003 (ip), vehicle: alcohol 96 % of control | dose: 400.0 mg/kg/injection, schedule: Q04DX003 (ip), vehicle: alcohol 96 % of control

NC(=O)CC(NC(=O)C(F)(F)F)C(=O)O (stereo unspecified)
inactive: dose: 75.0 mg/kg/injection, schedule: Q01DX001 (ip), vehicle: saline 101 % of control | dose: 150.0 mg/kg/injection, schedule: Q01DX001 (ip), vehicle: saline 95 % of control | dose: 300.0 mg/kg/injection, schedule: Q01DX001 (ip), vehicle: saline 101 % of control

C=C[Si](C=C)(C=C)C=C
inactive: [6] 101 % of control | [7] 104 % of control | [8] 107 % of control

COC1OC(CSC#N)C2OC(C)(C)OC12 (stereo unspecified)
inactive: dose: 5.0 mg/kg/injection, schedule: Q01DX001 (ip), vehicle: saline 97 % of control | dose: 10.0 mg/kg/injection, schedule: Q01DX001 (ip), vehicle: saline 101 % of control | dose: 20.0 mg/kg/injection, schedule: Q01DX001 (ip), vehicle: saline 101 % of control | dose: 40.0 mg/kg/injection, schedule: Q01DX001 (ip), vehicle: saline 101 % of control

CCOc1cc([N+](=O)[O-])c(OCC)cc1Cl
inactive: [9] 90 % of control | [2] 92 % of control | [10] 96 % of control | [11] 89 % of control | [12] 98 % of control | [13] 93 % of control

O=c1[nH]c(=O)n(C2OC(CO)C(O)C(O)C2O)cc1F (stereo unspecified)
inactive: dose: 12.5 mg/kg/injection, schedule: Q01DX005 (ip), vehicle: water 105 % of control | dose: 25.0 mg/kg/injection, schedule: Q01DX005 (ip), vehicle: water 95 % of control | dose: 50.0 mg/kg/injection, schedule: Q01DX005 (ip), vehicle: water 101 % of control | dose: 100.0 mg/kg/injection, schedule: Q01DX005 (ip), vehicle: water 103 % of control | dose: 200.0 mg/kg/injection, schedule: Q01DX005 (ip), vehicle: water 94 % of control

FC(F)Cc1ccccc1
inactive: [3] 100 % of control | [4] 94 % of control | [5] 100 % of control

O=C(O)C(Cl)C(Cl)c1ccccc1 (stereo unspecified)
inactive: dose: 100.0 mg/kg/injection, schedule: Q04DX002 (ip), vehicle: saline 90 % of control | dose: 200.0 mg/kg/injection, schedule: Q04DX002 (ip), vehicle: saline 94 % of control | dose: 400.0 mg/kg/injection, schedule: Q04DX002 (ip), vehicle: saline 94 % of control

NC(=O)CSc1ccccc1
inactive: dose: 100.0 mg/kg/injection, schedule: Q01DX001 (ip), vehicle: other 101 % of control | dose: 200.0 mg/kg/injection, schedule: Q01DX001 (ip), vehicle: other 101 % of control | dose: 400.0 mg/kg/injection, schedule: Q01DX001 (ip), vehicle: other 107 % of control

C[n+]1csc(=S)[nH]1
inactive: [14] 105 % of control | [15] 109 % of control | [16] 114 % of control

Cc1nnc(-c2cn(C3OC(CO)C(O)C3O)c3ncnc(N)c23)nc1C (stereo unspecified)
inactive: dose: 100.0 mg/kg/injection, schedule: Q01DX005 (ip), vehicle: saline 97 % of control | dose: 200.0 mg/kg/injection, schedule: Q01DX005 (ip), vehicle: saline 96 % of control

Cc1nc(C)c2c(n1)Oc1ccc3ccccc3c1C2
inactive: [6] 97 % of control | [7] 97 % of control | [8] 97 % of control

COC(=O)C1C2OC3C(OC(=O)C31)C2Br (stereo unspecified)
inactive: [9] 91 % of control | [2] 86 % of control | [10] 91 % of control | [11] 94 % of control | [12] 95 % of control | [13] 91 % of control

CC(=O)OC1CC2C[CH]([Hg][Cl])C1C2 (stereo unspecified)
inactive: dose: 6.25 mg/kg/injection, schedule: Q04DX003 (ip), vehicle: saline with Tween-80 95 % of control | dose: 12.5 mg/kg/injection, schedule: Q04DX003 (ip), vehicle: saline with Tween-80 111 % of control | dose: 25.0 mg/kg/injection, schedule: Q04DX003 (ip), vehicle: saline with Tween-80 86 % of control

O=C1NC(CN2CCC(O)CC2)C(=O)NC1CN1CCC(O)CC1 (stereo unspecified)
inactive: dose: 3.13 mg/kg/injection, schedule: Q01DX009 (ip), vehicle: water 97 % of control | dose: 6.25 mg/kg/injection, schedule: Q01DX009 (ip), vehicle: water 95 % of control | dose: 12.5 mg/kg/injection, schedule: Q01DX009 (ip), vehicle: water 97 % of control | dose: 25.0 mg/kg/injection, schedule: Q01DX009 (ip), vehicle: water 100 % of control | dose: 50.0 mg/kg/injection, schedule: Q01DX009 (ip), vehicle: water 100 % of control | dose: 100.0 mg/kg/injection, schedule: Q01DX009 (ip), vehicle: water 108 % of control

Cc1nc2scc(C)c2c(=S)[nH]1
inactive: [3] 96 % of control | [4] 97 % of control | [5] 88 % of control

O=C1c2ccccc2C(c2ccccc2)(c2ccccc2)N1c1ccccc1
inactive: [2] 107 % of control | [11] 104 % of control | [13] 107 % of control

OC12CCCCC1(O)CCCC2 (stereo unspecified)
inactive: [3] 100 % of control | [9] 102 % of control | [4] 97 % of control | [10] 102 % of control | [5] 97 % of control | [12] 102 % of control

Clc1cc(Cl)c2nc[nH]c2c1
inactive: [1] 91 % of control | [9] 95 % of control

Brc1ccc([Si](c2ccccc2)(c2ccccc2)c2ccc(-c3ccccc3)cc2)cc1
inactive: [17] 102 % of control | [18] 96 % of control | [19] 96 % of control

CCCCCCCCCCCCCCCCOc1ccc(S(=O)(=O)NC2CCCCC2)cc1N
inactive: [2] 104 % of control | [11] 94 % of control | [13] 96 % of control

OC1(c2ccccc2)c2cscc2C(O)(c2ccccc2)c2c(Cl)sc(Cl)c21 (stereo unspecified)
inactive: dose: 6.25 mg/kg/injection, schedule: Q01DX001 (ip), vehicle: saline with Tween-80 100 % of control | dose: 12.5 mg/kg/injection, schedule: Q01DX001 (ip), vehicle: saline with Tween-80 95 % of control | dose: 25.0 mg/kg/injection, schedule: Q01DX001 (ip), vehicle: saline with Tween-80 88 % of control

Nc1ncnc2c1ncn2CCCN1C(=O)c2ccccc2C1=O
inactive: [9] 93 % of control | [10] 95 % of control | [12] 101 % of control

CNCCSSCCN
inactive: [1] 95 % of control | dose: 50.0 mg/kg/injection, schedule: Q04DX003 (ip), vehicle: saline 98 % of control | [9] 93 % of control | [14] 93 % of control | [15] 98 % of control | [16] 98 % of control

O=c1cc(O)c(Cl)n[nH]1
inactive: dose: 25.0 mg/kg/injection, schedule: Q01DX009 (ip), vehicle: other 94 % of control | dose: 50.0 mg/kg/injection, schedule: Q01DX009 (ip), vehicle: other 94 % of control | [17] 97 % of control | [18] 92 % of control | [19] 88 % of control
